Assay: Entrapment of daunorubicin in distearoyl phosphatidylcholine-cholesterol vesicles using ethylenediamine citrate (ion-exchange loading)
Format: physicochemical
Conditions: lipid:drug ratio approximately at least 16:1 (mol/mol as printed); 65°C for about 10 minutes; typical value
Protocol: A dry powder containing a homogenous dispersion of cholesterol and distearoylphosphatidylcholine at a 1:2 molar ratio was prepared by evaporation from a 1:1 chloroform/methanol solution. […] The lipid concentration in the resulting suspension was about 20 to 25 mg/ml. This mixture was then heated to 65°C. Next, while maintaining that temperature, the mixture was homogenized using a sonicator to produce a suspension of small unilamellar vesicles. The vesicles thus obtained had diameters principally in the range of about 40 to 80 nm with little or no particles in excess of 100 nm.
Following homogenization, the mixture underwent a buffer exchange to remove the external, unentrapped, ethylenediamine citrate. This was accomplished by subjecting the mixture to tangential flow ultrafiltration. This process removes water and small molecular weight solutes while retaining lipid vesicles and their contents. Using this process, the lactose/ethylenediamine citrate buffer external to the vesicles was replaced with 250 mM lactose/50 mM glycine. The vesicle preparation was heated to about 65°C and an amount of daunorubicin (base or suitable salt form) was added to yield a lipid to drug ratio in the range of about 16:1 to 19:1 or more (w/w), but preferably 17.4:1. […]

SMILES: COc1cccc2c1C(=O)c1c(O)c3c(c(O)c1C2=O)C[C@@](O)(C(C)=O)C[C@@H]3O[C@H]1C[C@H](N)[C@H](O)[C@H](C)O1 [daunorubicin]
- added daunorubicin vesicle entrapped as daunorubicin-citrate: greater than 90%

From EP0661044A1 (priority 1991, dated 1993)
